Results as given in ChEMBL document CHEMBL4340517, “Synthesis and biological evaluation of 7-substituted cycloberberine derivatives as potent antibacterial agents against MRSA” (2019).
In brackets after ≈: the same amount, converted by molar mass. Activity calls are given as the source filed them. The rule behind the calls is not given here.

Experiments:
Staphylococcus aureus [1] = assay: Antibacterial activity against methicillin-sensitive Staphylococcus aureus ATCC 29213 after 18 hrs by agar dilution method; format: functional; conditions: ATCC 29213, 18 h
Staphylococcus aureus [2] = assay: Antibacterial activity against methicillin-resistant Staphylococcus aureus ATCC 33591 after 18 hrs by agar dilution method; format: functional; conditions: ATCC 33591, 18 h
Staphylococcus aureus [3] = assay: Antibacterial activity against VAN-intermediate Staphylococcus aureus ATCC 700698 after 18 hrs by agar dilution method; format: functional; conditions: ATCC 700698, 18 h
[4] = tested on: Staphylococcus epidermidis; assay: Antibacterial activity against methicillin-resistant Staphylococcus epidermidis 13-3 after 18 hrs by agar dilution method; format: functional; conditions: 13-3, 18 h
Enterococcus faecalis [5] = assay: Antibacterial activity against VAN-sensitive Enterococcus faecalis ATCC 29212 after 18 hrs by agar dilution method; format: functional; conditions: ATCC 29212, 18 h
Enterococcus faecalis [6] = assay: Antibacterial activity against VAN-resistant Enterococcus faecalis ATCC 51299 after 18 hrs by agar dilution method; format: functional; conditions: ATCC 51299, 18 h
Enterococcus faecium = assay: Antibacterial activity against VAN-resistant Enterococcus faecium ATCC 700221 after 18 hrs by agar dilution method; format: functional; conditions: ATCC 700221, 18 h
Staphylococcus aureus [7] = assay: Antibacterial activity against methicillin-resistant Staphylococcus aureus 18-4 after 18 hrs by agar dilution method; format: functional; conditions: 18-4, 18 h
Staphylococcus aureus [8] = assay: Bactericidal activity against methicillin-resistant Staphylococcus aureus 18-4 assessed as reduction in bacterial growth at 2 to 32 times MIC measured within 8 hrs by time kill assay relative to control; format: functional
Staphylococcus aureus [9] = assay: Bactericidal activity against methicillin-resistant Staphylococcus aureus 18-4 assessed as reduction in bacterial growth at 2 times MIC measured after 24 hrs by time kill assay relative to control; format: functional
Staphylococcus aureus [10] = assay: Bactericidal activity against methicillin-resistant Staphylococcus aureus 18-4 assessed as reduction in bacterial growth at 8 times MIC measured within 2 hrs by time kill assay relative to control; format: functional
[11] = target: Topoisomerase IV (Staphylococcus aureus) (UniProt P0C1U9+P0C1S7); assay: Inhibition of methicillin-resistant Staphylococcus aureus topoisomerase-4 assessed as reduction in DNA decatenation at 2.5 to 5 ug/ml using super coiled pBR322 plasmid DNA as substrate measured after 30 mins by agarose gel electrophoresis method relative to control; format: protein-complex assay

`COc1ccc2c(c1OC)c(-c1ccc(Cl)cc1)[n+]1c3c2ccc2c4c(cc(c23)CC1)OCO4.[Br-]` showed an MIC (Staphylococcus aureus [1]) of 2 µg/mL, an MIC (Staphylococcus aureus [2]) of 4 µg/mL and an MIC (Staphylococcus aureus [3]) of 8 µg/mL. The MIC [4] was 1 µg/mL, the MIC (Enterococcus faecalis [5]) was 8 µg/mL and the MIC (Enterococcus faecalis [6]) was 8 µg/mL. For the same molecule, the MIC (Enterococcus faecium) was > 128 µg/mL.

For `COc1ccc2c(c1OC)c(C1CC1)[n+]1c3c2ccc2c4c(cc(c23)CC1)OCO4.[Br-]`, the MIC (Staphylococcus aureus [1]) was 8 µg/mL, the MIC (Staphylococcus aureus [2]) was 16 µg/mL and the MIC (Staphylococcus aureus [3]) was 16 µg/mL. For the same molecule, the MIC [4] was 8 µg/mL, the MIC (Enterococcus faecalis [5]) was 16 µg/mL and the MIC (Enterococcus faecalis [6]) was 16 µg/mL. The MIC (Enterococcus faecium) was 16 µg/mL.

Work on `COc1ccc2c(c1OC)c(-c1ccccc1)[n+]1c3c2ccc2c4c(cc(c23)CC1)OCO4.[Br-]` yielded an MIC (Staphylococcus aureus [1]) of 1 µg/mL, an MIC (Staphylococcus aureus [2]) of 4 µg/mL and an MIC (Staphylococcus aureus [3]) of 8 µg/mL. For the same molecule, the MIC [4] was 1 µg/mL, the MIC (Enterococcus faecalis [5]) was 4 µg/mL and the MIC (Enterococcus faecalis [6]) was 4 µg/mL. The MIC (Enterococcus faecium) was 4 µg/mL, the MIC (Staphylococcus aureus [7]) was 1 µg/mL and the “growth inhibition (GI)” value (Staphylococcus aureus [8]) was >90%. The “growth inhibition (GI)” value (Staphylococcus aureus [9]) was 99.99%, the “growth inhibition (GI)” value (Staphylococcus aureus [10]) was 100% and the inhibition [11] was “Active”.

With `CCc1cc2c3ccc(OC)c(OC)c3c[n+]3c2c2c(cc4c(c12)OCO4)CC3.[Cl-]` the MIC (Staphylococcus aureus [1]) was 2 µg/mL, the MIC (Staphylococcus aureus [2]) was 4 µg/mL and the MIC (Staphylococcus aureus [3]) was 16 µg/mL. The MIC [4] was 1 µg/mL, the MIC (Enterococcus faecalis [5]) was 8 µg/mL and the MIC (Enterococcus faecalis [6]) was 8 µg/mL. It also gave an MIC (Enterococcus faecium) of 32 µg/mL.

Molecule `CN[C@H](CC(C)C)C(=O)N[C@H]1C(=O)N[C@@H](CC(N)=O)C(=O)N[C@H]2C(=O)N[C@H]3C(=O)N[C@H](C(=O)N[C@H](C(=O)O)c4cc(O)cc(O)c4-c4cc3ccc4O)[C@H](O)c3ccc(c(Cl)c3)Oc3cc2cc(c3O[C@@H]2O[C@H](CO)[C@@H](O)[C@H](O)[C@H]2O[C@H]2C[C@](C)(N)[C@H](O)[C@H](C)O2)Oc2ccc(cc2Cl)[C@H]1O` [VANCOMYCIN] has an MIC (Staphylococcus aureus [3]) of 8 µg/mL (≈ 5.52 µM), an MIC (Enterococcus faecalis [5]) of 2 µg/mL (≈ 1.38 µM) and an MIC (Enterococcus faecalis [6]) of 32 µg/mL (≈ 22.1 µM). It also gave an MIC (Enterococcus faecium) of 64 µg/mL (≈ 44.2 µM).

For `CCCCc1cc2c3ccc(OC)c(OC)c3c(-c3ccc(Cl)cc3)[n+]3c2c2c(cc4c(c12)OCO4)CC3.[Br-]`, the MIC (Staphylococcus aureus [1]) was 1 µg/mL, the MIC (Staphylococcus aureus [2]) was 1 µg/mL and the MIC (Staphylococcus aureus [3]) was 32 µg/mL. It also gave an MIC [4] of 1 µg/mL, an MIC (Enterococcus faecalis [5]) of 1 µg/mL and an MIC (Enterococcus faecalis [6]) of 2 µg/mL. The MIC (Enterococcus faecium) was 1 µg/mL.

`CCc1cc2c3ccc(OC)c(OC)c3c(CC(C)C)[n+]3c2c2c(cc4c(c12)OCO4)CC3.[Br-]` gave an MIC (Staphylococcus aureus [1]) of 1 µg/mL, an MIC (Staphylococcus aureus [2]) of 4 µg/mL and an MIC (Staphylococcus aureus [3]) of 32 µg/mL. For the same molecule, the MIC [4] was 1 µg/mL, the MIC (Enterococcus faecalis [5]) was 4 µg/mL and the MIC (Enterococcus faecalis [6]) was 8 µg/mL. For the same molecule, the MIC (Enterococcus faecium) was 2 µg/mL.

`CCCc1cc2c3ccc(OC)c(OC)c3c(-c3ccc(Cl)cc3)[n+]3c2c2c(cc4c(c12)OCO4)CC3.[Br-]` was tested, and the MIC (Staphylococcus aureus [1]) was 2 µg/mL, the MIC (Staphylococcus aureus [2]) was 8 µg/mL and the MIC (Staphylococcus aureus [3]) was 32 µg/mL. The MIC [4] was 4 µg/mL, the MIC (Enterococcus faecalis [5]) was 16 µg/mL and the MIC (Enterococcus faecalis [6]) was 32 µg/mL. For the same molecule, the MIC (Enterococcus faecium) was > 128 µg/mL.

`CCCCc1cc2c3ccc(OC)c(OC)c3c[n+]3c2c2c(cc4c(c12)OCO4)CC3.[Cl-]` showed an MIC (Staphylococcus aureus [1]) of 4 µg/mL, an MIC (Staphylococcus aureus [2]) of 4 µg/mL and an MIC (Staphylococcus aureus [3]) of 16 µg/mL. It also gave an MIC [4] of 32 µg/mL, an MIC (Enterococcus faecalis [5]) of 16 µg/mL and an MIC (Enterococcus faecalis [6]) of 32 µg/mL. The MIC (Enterococcus faecium) was 16 µg/mL.

`COc1ccc2c(c1OC)c(-c1ccc3c(c1)OCO3)[n+]1c3c2ccc2c4c(cc(c23)CC1)OCO4.[Br-]` gave an MIC (Staphylococcus aureus [1]) of 16 µg/mL, an MIC (Staphylococcus aureus [2]) of 16 µg/mL and an MIC (Staphylococcus aureus [3]) of 32 µg/mL. For the same molecule, the MIC [4] was 2 µg/mL, the MIC (Enterococcus faecalis [5]) was 8 µg/mL and the MIC (Enterococcus faecalis [6]) was 8 µg/mL. The MIC (Enterococcus faecium) was 8 µg/mL.

Molecule `C=Cc1c2c(OC)c(OC)ccc2c2cc(CC)c3c4c(cc5c3c2[n+]1CC5)OCO4.[Br-]` has an MIC (Staphylococcus aureus [1]) of 1 µg/mL, an MIC (Staphylococcus aureus [2]) of 2 µg/mL and an MIC (Staphylococcus aureus [3]) of 32 µg/mL. For the same molecule, the MIC [4] was 1 µg/mL, the MIC (Enterococcus faecalis [5]) was 2 µg/mL and the MIC (Enterococcus faecalis [6]) was 4 µg/mL. For the same molecule, the MIC (Enterococcus faecium) was 1 µg/mL.

Work on `CCCc1cc2c3ccc(OC)c(OC)c3c[n+]3c2c2c(cc4c(c12)OCO4)CC3.[Cl-]` yielded an MIC (Staphylococcus aureus [1]) of 2 µg/mL, an MIC (Staphylococcus aureus [2]) of 16 µg/mL and an MIC (Staphylococcus aureus [3]) of 8 µg/mL. The MIC [4] was 4 µg/mL, the MIC (Enterococcus faecalis [5]) was 8 µg/mL and the MIC (Enterococcus faecalis [6]) was 8 µg/mL. For the same molecule, the MIC (Enterococcus faecium) was 8 µg/mL.

For `COc1ccc2c(c1OC)c(-c1ccc(C)cc1)[n+]1c3c2ccc2c4c(cc(c23)CC1)OCO4.[Br-]`, the MIC (Staphylococcus aureus [1]) was 8 µg/mL, the MIC (Staphylococcus aureus [2]) was 16 µg/mL and the MIC (Staphylococcus aureus [3]) was 16 µg/mL. The MIC [4] was 8 µg/mL, the MIC (Enterococcus faecalis [5]) was 16 µg/mL and the MIC (Enterococcus faecalis [6]) was 16 µg/mL. It also gave an MIC (Enterococcus faecium) of 16 µg/mL.
